Test: storage study of relatively neutral pH beverage compositions containing glucosamine
Assay type: physicochemical
Protocol: Special considerations in packaging, shipping, and or formulations may also be considered when delivering a targeted amount of glucosamine in the beverage compositions. As an example, shake-type beverages, such as the beverage composition provided in Table 3, are generally formulated to have a relatively neutral pH value.
Such a formulation was determined to deliver 1,500 mg of glucosamine based on results from a storage study. During the study, in which such beverages were stored for a period of 12 months at ambient (73 degrees Fahrenheit) temperature, it was determined that approximately 77% of glucosamine originally present had degraded during a 12 month storage period. Thus, information regarding the average shelf-life and/or delivery mechanisms for specific products may be utilized when formulating the beverage compositions. Such factors may include the temperature, time to consumption, packaging the compositions are stored within, among others.

SMILES	degradation rate in beverage (formulated in beverages having neutral pHs (shake-type))	glucosamine originally present that had degraded during storage (relatively neutral pH beverage, around about 20 mg/ml glucosamine, stored 12 months at ambient (73 degrees Fahrenheit) temperature)
Cl.N[C@H]1C(O)O[C@H](CO)[C@@H](O)[C@@H]1O (some centres unmarked) [Glucosamine hydrochloride, glucosamine hydrochloride]	degrades at a quickened rate	–
N[C@H]1C(O)O[C@H](CO)[C@@H](O)[C@@H]1O (some centres unmarked) [glucosamine]	–	approximately 77%
